Results on nine compounds are retold here after ChEMBL document CHEMBL1140760, “Molecular docking identifies the binding of 3-chloropyridine moieties specifically to the S1 pocket of SARS-CoV Mpro” (Bioorg Med Chem, 2008).

Each structure is given as a SMILES string.

The term IC50 denotes the concentration that inhibits the measured activity by half. Read a high IC50 as weaker potency in that assay.

This assay in a line: Inhibition of SARS-CoV Mpro. Details: species or system Severe acute respiratory syndrome-related coronavirus.
In turn, `O=C(Oc1cncc(Cl)c1)c1ccc(-c2ccc([N+](=O)[O-])cc2)o1` had an IC50 of 0.06 µM. As for `O=C(Oc1cncc(Cl)c1)c1cccc2ccccc12`, the figure is 0.124 µM. As for `O=C(Oc1cncc(Cl)c1)c1ccc(-c2cccc([N+](=O)[O-])c2)o1`, the figure is 0.5 µM; as for `O=C(Oc1cncc(Cl)c1)c1ccc(-c2ccc(Cl)cc2[N+](=O)[O-])o1`, 0.122 µM.

In the case of `O=C(Oc1cncc(Cl)c1)c1ccc(-c2ccc(Cl)cc2)o1`, half-maximal inhibition (IC50) was put at 0.063 µM. To `O=C(Oc1cncc(Cl)c1)c1ccc(-c2ccccc2[N+](=O)[O-])o1` belongs 0.208 µM; to `O=C(Oc1cncc(Cl)c1)c1cc2ccccc2oc1=O`, 0.108 µM. To `O=C(Oc1cncc(Cl)c1)c1ccccc1[N+](=O)[O-]` belongs 0.333 µM.

The compound `O=C(Oc1cncc(Cl)c1)c1cccc([N+](=O)[O-])c1` came in with an IC50 of 0.684 µM.
